{"source": "patent US20220267352A1", "about": "“RAPAMYCIN ANALOGS AND USES THEREOF” (Anakuria Therapeutics, Inc., priority 2021, published 2022)", "key": {"[1]": {"tested_on": "p-p70 S6 Kinase (Thr389) in MCF-7 cells", "test": "AlphaLISA Ultra pS6K1 assay", "assay_type": "cell-based", "conditions": "Homo sapiens, 1.5 h; MCF7 cells, 90 min", "how_it_was_run": "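Phospho-S6K1 (Thr389) quantified by AlphaLISA Ultra read-out (2 h acceptor, then 2 h donor beads) in lysates of MCF-7 cells. Cells were plated 20–24 h before, refed 2 h, exposed to compounds for 90 min at 0.5% final DMSO, and lysates stored at −80 °C.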"}, "[2]": {"tested_on": "pS6K1 T389 and pAkt S473 in PC3 cells", "test": "Western blot based pS6K1 and pAKT assay at 24 and 48 hour timepoints", "assay_type": "cell-based", "method": "Example 57: Western Blot Based pS6K1 and pAKT Assay at 24 and 48 Hour Timepoints\nAssay Protocol: • 1. Seed six well plate with 500,000 PC3 cells per well and incubate for 20˜24 hour. • 2. Add compounds into the cell plate. Incubate for 24 to 48 hours. • 4. Plate is placed on ice and the media is removed via aspiration. The wells are washed with 1 mL of 1x PBS and then fully aspirated. • 5. 110 μL of 1% Triton Lysis Buffer is added and each well is scraped vigorously. • 6. Cell homogenates are transferred to 1.5 mL eppendorf tubes on ice and spun down at 4° C. for 10 minutes at 10,000 rpm. • 7. Protein concentration of resulting cell lysates were quantified utilizing a Bradford assay and the samples run analyzed via Western blot on 4-12% Bis/Tris gels with 1×MES buffer. • 8. The gels were transferred onto membranes at 50V for 100 minutes, blocked with Odyssey Blocking buffer for 30 minutes then incubated overnight with primary antibody (pS6K1 T389 Rabbit or pAkt S473 Rabbit) overnight at 4° C. on a rotator. • 9. The membranes were washed 3× with TBS-T with a 5 minute incubation between each wash then incubated with secondary antibody (LiCor IRDye 800 Donkey Anti Rabbit) for at least 30 minutes. • 10. The membranes were washed 3× with TBS-T with a 5 minute incubation between each wash. • 11. The gels were then incubated for 5 minutes with PBS at room temperature then imaged using a Li-Cor.\nCompounds that are not selective by comparing pS6K1 and pAKT IC50 by kinase assays are indicated by “NO” in the “mTORC1 selective @ 90 min” column of Table 4. […] Compounds that are not selective at the 24 hrs mark are indicated by “NO” in the “mTORC1 selective @ 24 hrs” column of Table 4. “N/A” stands for “not assayed” and “N/C” stands for “not calculated”."}}, "note": "pIC50: −log10 of the molar value."}
{"smiles": "CO[C@@H]1C[C@H](C[C@@H](C)[C@@H]2CC(=O)[C@H](C)/C=C(\\C)[C@@H](O)[C@@H](OC)C(=O)[C@H](C)C[C@H](C)/C=C/C=C/C=C(\\C)[C@@H](OCCOC3COC3)C[C@@H]3CC[C@@H](C)[C@@](O)(O3)C(=O)C(=O)N3CCCC[C@H]3C(=O)O2)CC[C@H]1OCCCN1CCOCC1", "note": "[I-14, (27E,29E,31E,32E,39R,40S,41R,42R,44S,46S,48S,49S,51R,52R,61R)-51,61-dihydroxy-52-methoxy-49-[(1R)-2-[(1S,3R,4R)-3-methoxy-4-(3-morpholinopropoxy)cyclohexyl]-1-methyl-ethyl]-39,40,41,42,53,54-hexamethyl-48-[2-(oxetan-3-yloxy)ethoxy]-73,74-dioxa-63-azatricyclohexatriaconta-27,29,31(53),32(54)-tetraene-55,56,57,58,59-pentone]", "values": [{"measurement": "pIC50", "setting": "[1]", "result": "> 9.00"}, {"measurement": "mTORC1 selective @ 24 hrs", "setting": "[2]", "result": "Yes"}]}
{"smiles": "CO[C@@H]1C[C@H](C[C@@H](C)[C@@H]2CC(=O)[C@H](C)/C=C(\\C)[C@@H](O)[C@@H](OC)C(=O)[C@H](C)C[C@H](C)/C=C/C=C/C=C(\\C)[C@@H](OCCOC3COC3)C[C@@H]3CC[C@@H](C)[C@@](O)(O3)C(=O)C(=O)N3CCCC[C@H]3C(=O)O2)CC[C@H]1OC(=O)NCCN1CCOCC1", "note": "[I-21, [(42S,44R,46R)-4-[(2R)-2-[(27E,29E,31E,32E,38R,39S,40R,41R,43S,45S,47S,48S,50R,51R,61R)-50,61-dihydroxy-51-methoxy-38,39,40,41,52,53-hexamethyl-47-[2-(oxetan-3-yloxy)ethoxy]-54,55,56,57,58-pentaoxo-75,76-dioxa-64-azatricyclohexatriaconta-27,29,31(52),32(53)-tetraen-48-yl]propyl]-46-methoxy-44-cyclohexyl] N-(2-morpholinoethyl)carbamate]", "values": [{"measurement": "pIC50", "setting": "[1]", "result": "> 9.00"}, {"measurement": "mTORC1 selective @ 24 hrs", "setting": "[2]", "result": "Yes"}]}
{"smiles": "CO[C@@H]1/C(C)=C/[C@@H](C)C(=O)C[C@@H]([C@H](C)C[C@@H]2CC[C@@H](O)[C@H](OC)C2)OC(=O)[C@@H]2CCCCN2C(=O)C(=O)[C@]2(O)O[C@@H](CC[C@H]2C)C[C@H](OCC2COCCO2)/C(C)=C/C=C/C=C/[C@@H](C)C[C@@H](C)C(=O)[C@@H]1OC", "note": "(stereo partly drawn) [I-27, (25E,27E,29E,30E,33R,34S,35R,36R,38S,40S,42S,43S,45R,46R,55R)-42-(1,4-dioxan-2-ylmethoxy)-55-hydroxy-43-[(1R)-2-[(1S,3R,4R)-4-hydroxy-3-methoxy-cyclohexyl]-1-methyl-ethyl]-45,46-dimethoxy-33,34,35,36,47,48-hexamethyl-66,67-dioxa-56-azatricyclohexatriaconta-25,27,29(47),30(48)-tetraene-49,50,51,52,53-pentone]", "values": [{"measurement": "pIC50", "setting": "[1]", "result": "7.00 to 8.00"}, {"measurement": "mTORC1 selective @ 24 hrs", "setting": "[2]", "result": "Yes"}]}
{"smiles": "COCCOCCO[C@H]1C[C@@H]2CC[C@@H](C)[C@@](O)(O2)C(=O)C(=O)N2CCCC[C@H]2C(=O)O[C@H]([C@H](C)C[C@@H]2CC[C@@H](OC)[C@H](OC)C2)CC(=O)[C@H](C)/C=C(\\C)[C@@H](OC)[C@@H](OC)C(=O)[C@H](C)C[C@H](C)/C=C/C=C/C=C/1C", "note": "[I-31, (24E,26E,28E,29E,35R,36S,37R,38R,40S,42S,44S,45S,46R,47R,56R)-45-[(1R)-2-[(1S,3R,4R)-3,4-dimethoxycyclohexyl]-1-methyl-ethyl]-56-hydroxy-46,47-dimethoxy-44-[2-(2-methoxyethoxy)ethoxy]-35,36,37,38,48,49-hexamethyl-64,65-dioxa-57-azatricyclohexatriaconta-24,26,28(48),29(49)-tetraene-50,51,52,53,54-pentone]", "values": [{"measurement": "pIC50", "setting": "[1]", "result": "7.00 to 8.00"}, {"measurement": "mTORC1 selective @ 24 hrs", "setting": "[2]", "result": "Yes"}]}
{"smiles": "COCCOCCO[C@H]1C[C@@H]2CC[C@@H](C)[C@@](O)(O2)C(=O)C(=O)N2CCCC[C@H]2C(=O)O[C@H]([C@H](C)C[C@@H]2CC[C@@H](OP(C)(C)=O)[C@H](OC)C2)CC(=O)[C@H](C)/C=C(\\C)[C@@H](OC)[C@@H](OC)C(=O)[C@H](C)C[C@H](C)/C=C/C=C/C=C/1C", "note": "[I-34, (25E,27E,29E,30E,36R,37S,38R,39R,41S,43S,45S,46S,47R,48R,57R)-46-[(1R)-2-[(1S,3R,4R)-4-dimethylphosphoryloxy-3-methoxy-cyclohexyl]-1-methyl-ethyl]-57-hydroxy-47,48-dimethoxy-45-[2-(2-methoxyethoxy)ethoxy]-36,37,38,39,49,50-hexamethyl-66,67-dioxa-58-azatricyclohexatriaconta-25,27,29(49),30(50)-tetraene-51,52,53,54,55-pentone]", "values": [{"measurement": "pIC50", "setting": "[1]", "result": "8.00 to 9.00"}, {"measurement": "mTORC1 selective @ 24 hrs", "setting": "[2]", "result": "Yes"}]}
{"smiles": "COCCOCCO[C@H]1C[C@@H]2CC[C@@H](C)[C@@](O)(O2)C(=O)C(=O)N2CCCC[C@H]2C(=O)O[C@H]([C@H](C)C[C@@H]2CC[C@@H](OCCO)[C@H](OC)C2)CC(=O)[C@H](C)/C=C(\\C)[C@@H](OC)[C@@H](OC)C(=O)[C@H](C)C[C@H](C)/C=C/C=C/C=C/1C", "note": "[I-37, (23E,25E,27E,28E,36R,37S,38R,39R,41S,43S,45S,46S,47R,48R,57R)-57-hydroxy-46-[(1R)-2-[(1S,3R,4R)-4-(2-hydroxyethoxy)-3-methoxy-cyclohexyl]-1-methyl-ethyl]-47,48-dimethoxy-45-[2-(2-methoxyethoxy)ethoxy]-36,37,38,39,49,50-hexamethyl-66,67-dioxa-58-azatricyclohexatriaconta-23,25,27(49),28(50)-tetraene-51,52,53,54,55-pentone]", "values": [{"measurement": "pIC50", "setting": "[1]", "result": "8.00 to 9.00"}, {"measurement": "mTORC1 selective @ 24 hrs", "setting": "[2]", "result": "Yes"}]}
{"smiles": "CO[C@@H]1/C(C)=C/[C@@H](C)C(=O)C[C@@H]([C@H](C)C[C@@H]2CC[C@@H](OC)[C@H](OC)C2)OC(=O)[C@@H]2CCCCN2C(=O)C(=O)[C@]2(O)O[C@@H](CC[C@H]2C)C[C@H](OCC2COCCO2)/C(C)=C/C=C/C=C/[C@@H](C)C[C@@H](C)C(=O)[C@@H]1OC", "note": "(stereo partly drawn) [I-40, (26E,28E,30E,31E,34R,35S,36R,37R,39S,41S,43S,44S,46R,47R,56R)-44-[(1R)-2-[(1S,3R,4R)-3,4-dimethoxycyclohexyl]-1-methyl-ethyl]-43-(1,4-dioxan-2-ylmethoxy)-56-hydroxy-46,47-dimethoxy-34,35,36,37,48,49-hexamethyl-66,67-dioxa-57-azatricyclohexatriaconta-26,28,30(48),31(49)-tetraene-50,51,52,53,54-pentone]", "values": [{"measurement": "pIC50", "setting": "[1]", "result": "≤ 6.00"}, {"measurement": "mTORC1 selective @ 24 hrs", "setting": "[2]", "result": "Yes"}]}
{"smiles": "COCCS(=O)(=O)CCO[C@H]1C[C@@H]2CC[C@@H](C)[C@@](O)(O2)C(=O)C(=O)N2CCCC[C@H]2C(=O)O[C@H]([C@H](C)C[C@@H]2CC[C@@H](OC)[C@H](OC)C2)CC(=O)[C@H](C)/C=C(\\C)[C@@H](OC)[C@@H](OC)C(=O)[C@H](C)C[C@H](C)/C=C/C=C/C=C/1C", "note": "[I-43, (24E,26E,28E,29E,35R,36S,37R,38R,40S,42S,44S,45S,46R,47R,56R)-45-[(1R)-2-[(1S,3R,4R)-3,4-dimethoxycyclohexyl]-1-methyl-ethyl]-56-hydroxy-46,47-dimethoxy-44-[2-(2-methoxyethylsulfonyl)ethoxy]-35,36,37,38,48,49-hexamethyl-66,67-dioxa-57-azatricyclohexatriaconta-24,26,28(48),29(49)-tetraene-50,51,52,53,54-pentone]", "values": [{"measurement": "pIC50", "setting": "[1]", "result": "7.00 to 8.00"}, {"measurement": "mTORC1 selective @ 24 hrs", "setting": "[2]", "result": "Yes"}]}
